# Source: ChEMBL document CHEMBL3886378, “Heterocyclic sulfone mGluR4 allosteric potentiators, compositions, and methods of treating neurological dysfunction” (2015)
# Molecular target: Metabotropic glutamate receptor 4 (Homo sapiens, UniProt Q14833)
# Test: Receptor Activity Assay: The disclosed compounds and compositions can be evaluated for their ability to act as a potentiator of metabotropic glutamate receptor activity, in particular mGluR4 activity, by any suitable known methodology known in the art. For example, Chinese Hamster Ovary (CHO) cells transfected with human mGluR4 or HEK cells co-transfected with rat mGluR4 and the G-protein regulated Inwardly Rectifying Potassium channel (GIRK) were plated in clear bottom assay plates for assay in a Hamamatsu FDSS Fluorometric Plate Reader. The cells were loaded with either a Ca2+-sensitive fluorescent dye or the thallium responsive dye and the plates were washed and placed into a suitable kinetic plate reader. For human mGluR4 assays, a fluorescence baseline was established for 3-5 seconds, the disclosed compounds were then added to the cells, and the response in cells was measured.
# Assay type: functional, cell-based, HEK293
# Chain of Metabotropic glutamate receptor 4 (Q14833 whole entry): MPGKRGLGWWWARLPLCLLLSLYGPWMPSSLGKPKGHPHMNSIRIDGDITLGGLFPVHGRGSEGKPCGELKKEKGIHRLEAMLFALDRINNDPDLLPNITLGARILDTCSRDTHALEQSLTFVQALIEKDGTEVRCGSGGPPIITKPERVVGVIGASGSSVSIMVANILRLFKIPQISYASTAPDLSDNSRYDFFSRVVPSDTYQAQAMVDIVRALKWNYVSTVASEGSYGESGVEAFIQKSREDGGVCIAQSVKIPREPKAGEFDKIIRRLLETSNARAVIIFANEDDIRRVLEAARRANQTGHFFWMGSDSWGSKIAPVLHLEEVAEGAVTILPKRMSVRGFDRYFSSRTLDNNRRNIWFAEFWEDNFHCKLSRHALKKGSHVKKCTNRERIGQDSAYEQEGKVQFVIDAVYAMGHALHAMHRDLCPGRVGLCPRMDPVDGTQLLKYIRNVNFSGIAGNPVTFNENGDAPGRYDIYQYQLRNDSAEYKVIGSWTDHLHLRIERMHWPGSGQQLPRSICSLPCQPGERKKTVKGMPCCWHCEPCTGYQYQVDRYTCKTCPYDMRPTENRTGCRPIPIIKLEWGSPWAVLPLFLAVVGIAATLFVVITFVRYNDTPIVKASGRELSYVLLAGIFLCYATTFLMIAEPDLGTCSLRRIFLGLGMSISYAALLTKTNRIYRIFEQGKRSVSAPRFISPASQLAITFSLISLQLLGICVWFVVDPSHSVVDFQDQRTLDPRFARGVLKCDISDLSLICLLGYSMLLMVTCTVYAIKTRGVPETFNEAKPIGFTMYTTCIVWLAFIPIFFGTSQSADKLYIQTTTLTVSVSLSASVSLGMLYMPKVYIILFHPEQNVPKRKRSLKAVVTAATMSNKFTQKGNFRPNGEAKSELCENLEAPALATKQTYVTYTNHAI
row,Compound,EC50
1,CCc1nc(NC(=O)c2ccccn2)sc1S(=O)(=O)Cc1c(F)cccc1F,139 nM
2,O=C(Nc1ncc(S(=O)(=O)Cc2ccccc2Cl)s1)c1ccccn1,> 10000 nM
3,Cc1nc(NC(=O)c2ccccn2)sc1S(=O)(=O)Cc1ccc(Cl)cc1F,255 nM
4,O=C(Nc1ncc(S(=O)(=O)Cc2ccc(Cl)cc2F)s1)c1ccccn1,44.1 nM
5,Cc1nc(NC(=O)c2ccccn2)sc1S(=O)(=O)Cc1ccc(F)cc1F,1010 nM
6,CCc1nc(NC(=O)c2ccccn2)sc1S(=O)(=O)Cc1ccc(Cl)cc1F,294 nM
7,O=C(Nc1nc(C(F)(F)F)c(S(=O)(=O)Cc2ccc(F)cc2F)s1)c1ccccn1,1730 nM
8,CCc1nc(NC(=O)c2ccccn2)sc1S(=O)(=O)Cc1c(F)cccc1Cl,141 nM
9,CCc1nc(NC(=O)c2ccccn2)sc1S(=O)(=O)Cc1ccc(Cl)cc1Cl,939 nM
10,O=C(Nc1nc(C2CC2)c(S(=O)(=O)Cc2ccccc2Cl)s1)c1ccccn1,2980 nM
11,O=C(Nc1nc(C(F)(F)F)c(S(=O)(=O)Cc2c(F)cccc2F)s1)c1ccccn1,1060 nM
12,O=C(Nc1nc(C2CC2)c(S(=O)(=O)Cc2c(F)cccc2F)s1)c1ccccn1,> 10000 nM
13,O=C(Nc1ncc(SCc2ccc(Cl)cc2Cl)s1)c1ccccn1,5000 nM
14,O=C(Nc1ncc(S(=O)(=O)Cc2ccccc2F)s1)c1ccccn1,398 nM
15,CC(C)c1nc(NC(=O)c2ccccn2)sc1S(=O)(=O)C(C)c1ccccc1F (stereo not given),9570 nM
16,CCc1nc(NC(=O)c2ccccn2)sc1S(=O)(=O)Cc1c(C)cc(C)cc1C,354 nM
17,CCc1nc(NC(=O)c2ccccn2)sc1S(=O)(=O)Cc1c(Cl)cccc1Cl,88 nM
18,Cc1nc(NC(=O)c2ccccn2)sc1S(=O)(=O)Cc1ccc(F)c(Cl)c1,2350 nM
19,O=C(Nc1nc(C(F)F)c(S(=O)(=O)Cc2c(F)cccc2F)s1)c1ccccn1,683 nM
20,Cc1nc(NC(=O)c2ccccn2)sc1S(=O)(=O)Cc1cc(F)c(F)cc1F,322 nM
21,O=C(Nc1nc(C2CC2)c(S(=O)(=O)Cc2ccc(F)cc2F)s1)c1ccccn1,1050 nM
22,O=C(Nc1nc(C2CC2)c(S(=O)(=O)Cc2ccc(Cl)cc2F)s1)c1ccccn1,1290 nM

row,Compound,EC50
1,O=C(Nc1ncc(S(=O)(=O)Cc2c(F)cccc2F)s1)c1ccccn1,170 nM
2,CC(C)c1nc(NC(=O)c2ccccn2)sc1S(=O)(=O)Cc1c(F)cccc1F,316 nM
3,O=C(Nc1ncc(S(=O)(=O)Cc2ccc(Cl)cc2Cl)s1)c1ccccn1,49.9 nM
4,CC(C)c1nc(NC(=O)c2ccccn2)sc1S(=O)(=O)C(C)c1ccccc1Cl (stereo not given),3750 nM
5,CC(C)c1nc(NC(=O)c2ccccn2)sc1S(=O)(=O)Cc1ccccc1F,3660 nM
6,CC(C)c1nc(NC(=O)c2ccccn2)sc1S(=O)(=O)Cc1ccc(Cl)cc1F,2930 nM
7,CC(C)c1nc(NC(=O)c2ccccn2)sc1S(=O)(=O)Cc1ccc(Cl)cc1Cl,3300 nM
8,CC(C)c1nc(NC(=O)c2ccccn2)sc1S(=O)(=O)Cc1ccccc1Cl,1950 nM
9,O=C(Nc1ncc(SCc2ccc(Cl)cc2F)s1)c1ccccn1,8240 nM
10,O=C(Nc1nc(CF)c(S(=O)(=O)Cc2c(F)cccc2F)s1)c1ccccn1,463 nM
11,O=C(Nc1nc(CO)c(S(=O)(=O)Cc2c(F)cccc2F)s1)c1ccccn1,8810 nM
12,O=C(Nc1nc(C(F)(F)F)c(S(=O)(=O)Cc2ccccc2F)s1)c1ccccn1,401 nM
13,O=C(Nc1nc(C2CC2)c(S(=O)(=O)Cc2ccc(Cl)cc2Cl)s1)c1ccccn1,> 10000 nM
14,O=C(Nc1nc(C(F)(F)F)c(S(=O)(=O)Cc2ccc(Cl)cc2Cl)s1)c1ccccn1,497 nM
15,O=C(Nc1nnc(S(=O)(=O)Cc2ccccc2)s1)c1ccccn1,> 10000 nM
16,CCc1nc(NC(=O)c2ccccn2)sc1S(=O)(=O)Cc1cccc(Cl)c1F,488 nM
17,Cc1nc(NC(=O)c2ccccn2)sc1S(=O)(=O)Cc1ccccc1C(F)(F)F,1020 nM
18,O=C(Nc1nc(C2CC2)c(S(=O)(=O)Cc2ccccc2F)s1)c1ccccn1,249 nM
19,Cc1nc(NC(=O)c2ccccn2)sc1S(=O)(=O)Cc1cccc(C(F)(F)F)c1,2460 nM
20,O=C(Nc1nc(C(F)(F)F)c(S(=O)(=O)Cc2ccc(Cl)cc2F)s1)c1ccccn1,181 nM
21,CC(C)c1nc(NC(=O)c2ccccn2)sc1S(=O)(=O)Cc1ccc(F)cc1F,3110 nM
22,O=C(Nc1nc(C(F)(F)F)c(S(=O)(=O)Cc2ccccc2Cl)s1)c1ccccn1,271 nM

# Results, then the molecule that gave them:
row,EC50,Compound
1,504 nM,Cc1nc(NC(=O)c2ccccn2)sc1S(=O)(=O)Cc1ccccc1Cl
2,312 nM,Cc1nc(NC(=O)c2ccccn2)sc1S(=O)(=O)Cc1c(F)cccc1F
3,192 nM,Cc1nc(NC(=O)c2ccccn2)sc1S(=O)(=O)Cc1c(F)cccc1Cl
4,709 nM,Cc1ccccc1CS(=O)(=O)c1sc(NC(=O)c2ccccn2)nc1C
5,486 nM,Cc1nc(NC(=O)c2ccccn2)sc1S(=O)(=O)Cc1ccc(Cl)cc1
6,1960 nM,COc1ccc(CS(=O)(=O)c2sc(NC(=O)c3ccccn3)nc2C)cc1
7,1510 nM,Cc1nc(NC(=O)c2ccccn2)sc1S(=O)(=O)Cc1ccc(F)cc1
8,445 nM,Cc1ccc(CS(=O)(=O)c2sc(NC(=O)c3ccccn3)nc2C)cc1
9,1330 nM,Cc1nc(NC(=O)c2ccccn2)sc1S(=O)(=O)Cc1ccccc1F
10,1610 nM,Cc1ccc(S(=O)(=O)c2sc(NC(=O)c3ccccn3)nc2C)cc1
11,937 nM,Cc1nc(NC(=O)c2ccccn2)sc1S(=O)(=O)Cc1ccc(F)c(F)c1
12,6970 nM,Cc1cccc(S(=O)(=O)c2sc(NC(=O)c3ccccn3)nc2C)c1
13,289 nM,Cc1nc(NC(=O)c2ccccn2)sc1S(=O)(=O)Cc1ccc(Cl)cc1Cl
14,1390 nM,Cc1nc(NC(=O)c2ccccn2)sc1S(=O)(=O)Cc1cccc(Cl)c1
15,450 nM,CCc1nc(NC(=O)c2ccccn2)sc1S(=O)(=O)Cc1ccc(C)cc1
16,3230 nM,Cc1nc(NC(=O)c2ccccn2)sc1S(=O)(=O)C(C)c1ccccc1Cl (stereo not given)
17,535 nM,Cc1nc(NC(=O)c2ccccn2)sc1S(=O)(=O)Cc1cccc(Cl)c1F
18,1070 nM,Cc1nc(NC(=O)c2ccccn2)sc1S(=O)(=O)Cc1cc(F)ccc1F
19,117 nM,Cc1nc(NC(=O)c2ccccn2)sc1S(=O)(=O)Cc1c(Cl)cccc1Cl
20,1050 nM,Cc1nc(NC(=O)c2ccccn2)sc1S(=O)(=O)Cc1ccc(C(C)C)cc1
21,4780 nM,Cc1nc(NC(=O)c2ccccn2)sc1S(=O)(=O)C(C)c1ccccc1F (stereo not given)
